Like-named read-outs stand apart in the source and are kept apart here.

For data set [1], the target named is DENV NS5 protein (serotype 2) (Dengue virus type 2, UniProt P14340). As to the kind of experiment: Nucleotide analogue incorporation / RNA elongation assay. The class given is biochemical, dengue virus serotype 2. The conditions noted are these: for effect on RNA synthesis after incorporation: P10/T20 primer-template, with or without GTP.
A short description of data set [2]: Plasma pharmacokinetics in CD-1 mice after oral AT-752. As to conditions: male, CD-1, mouse, in vivo, 420 mg/kg.
The nature of data set [3]: Plasma pharmacokinetics in cynomolgus monkeys after oral AT-752.
Data set [4] is described as follows: Plasma pharmacokinetics in Sprague Dawley rats after oral AT-752. The conditions noted are these: male, Sprague Dawley, rat, in vivo, po, 300 mg/kg.
Another data set has as its system DENV2 D2Y98P. Type of data set: in vivo, AG129 mice.
For data set [5] the following is noted: cynomolgus monkey plasma, 2 μM, 120 min, 37°C.
The conditions of data set [6]: human plasma, 2 μM, 120 min, 37°C.
The conditions of data set [7]: Sprague Dawley rat plasma, 10 min of incubation.
On the set-up of data set [8]: dose or concentration left out as unconfirmed. As to conditions: rats, doses up to for 14 days; S. S. Good, unpublished data.
For data set [9] the following is noted: monkeys, doses up to 1,000 mg/day for 14 days; S. S. Good, unpublished data.
The next data set in a line: in vitro. As to conditions: Sprague Dawley, rat, plasma.
For data set [10], the target named is human cellular DNA-dependent DNA polymerase α. As to conditions: read-out: estimated IC50; cited from earlier work.
Data set [11] has as its target human cellular DNA-dependent DNA polymerase β. The conditions noted are these: read-out: estimated IC50; cited from earlier work.
In data set [12] the target is human cellular DNA-dependent DNA polymerase γ. As to conditions: read-out: estimated IC50; cited from earlier work.
In data set [13] the test system is human mitochondrial DNA-directed RNA polymerase (POLRMT). The conditions noted are these: cited from earlier work.
For data set [14] the following is noted: rats, single oral dose AT-281 300 mg/kg, 24 h.
The conditions of data set [15]: mice, single oral dose AT-281 50 mg/kg, 12 h, pooled from 3 animals.
For data set [16] the following is noted: monkeys, single oral dose of AT-752 equivalent to 55 mg/kg AT-281, 12 h.
In a further data set the test system is DENV. Details: method as in PMID 22807519. As to conditions: cited from earlier work.
The nature of data set [17]: Cardiomyocyte assay (CellTiter Glo). Type of data set: cell-based. As to conditions: human iPS cardiomyocytes. On the technique in general: Cellular ATP, detected with luciferase, serves as a proxy for viable cell number.
Where [18] appears, read: male, cynomolgus, cynomolgus monkey, in vivo, po, 300 mg/kg.

With `Nc1nc2c(ncn2[C@@H]2O[C@H](COP(=O)(O)OP(=O)(O)OP(=O)(O)O)C[C@H]2O)c(=O)[nH]1` [3′-dGTP, reference compound], the “effect on RNA synthesis after incorporation” value in data set [1] is on record as “equivalent profile”.
By AUC(0-t) is commonly meant the area under the concentration-time curve up to a stated or last time point. A word on the Cmax: it is the highest concentration seen after dosing. The term Tmax denotes the time from dosing to the highest level. Take `C[C@@]1(F)[C@H](O)[C@@H](CO)O[C@H]1n1cnc2c(=O)[nH]c(N)nc21` [AT-273, 2′-fluoro-2′-C-methyl guanosine]: the “plasma AT-273 concentration” value amounted to 1.35 ± 0.86 nmol/mL (CD-1, mouse, in vivo) and 0.67 ± 0.12 nmol/mL (mice, AT-281 1,000 mg/kg loading then 500 mg/kg BID 3 days, 12 h after the first 500-mg/kg dose). The results for the AUC(0-t) in data set [2], in data set [3] (setting [18]) and in data set [4] were 18.8 ± 6 µM·h, 7.8 ± 2.4 µM·h and 22.9 µM·h, respectively. Also, the Cmax is 2300 ± 700 nM in data set [2], 800 ± 200 nM in [3] (setting [18]) and 1300 ± 300 nM in data set [4]. In [4], the time of peak concentration (Tmax) is 8 h.
In the case of `CNc1nc(N)nc2c1ncn2[C@@H]1O[C@H](CO[P@](=O)(O)N[C@@H](C)C(=O)O)[C@@H](O)[C@@]1(C)F` [AT-551], the AUC(0-t) in data set [2] is 58.7 ± 13.3 µM·h; in data set [3] (setting [18]), 9.7 ± 2.2 µM·h; in data set [4], 56.5 µM·h. The highest concentration (Cmax) was determined as 45100 ± 12000 nM in [2], 2000 ± 800 nM in data set [3] (setting [18]) and 16500 ± 10800 nM in data set [4]. Besides, the Tmax in data set [2] stood at 0.5 h; in data set [3] (setting [18]), 2 h.
For orientation: half-life means the time in which the quantity being followed falls by half. For `CNc1nc(N)nc2c1ncn2[C@@H]1O[C@H](CO[P@](=O)(N[C@@H](C)C(=O)OC(C)C)Oc2ccccc2)[C@@H](O)[C@@]1(C)F` [AT-752], in the data set with DENV2 D2Y98P (AG129 mice, oral 1,000 mg/kg loading 4 h before challenge then 500 mg/kg BID 7 days, P = 0.000014), the “viremia vs vehicle, day 6 pi” value is listed as “significantly lower”. In the data set on DENV2 D2Y98P (same regimen), the “viremia vs control, day 4 pi” value was “did not demonstrate a difference in viremia”. Besides, the “survival vs vehicle (Kaplan-Meier)” value in the data set with DENV2 D2Y98P (same regimen, P = 0.0004, Mantel-Cox log rank test) is reported as “significantly improved the survival”. For the same compound, the “health scores vs vehicle” value in the data set with DENV2 D2Y98P (same regimen, day 4 to day 9 pi, P < 0.001) is given as “significantly better health scores”. Besides, the “weight loss vs vehicle” value with DENV2 D2Y98P (same regimen, days 5, 7 and 8 pi, P < 0.001) is listed as “significantly reduced weight loss”. In addition, in the data set with DENV2 D2Y98P (same regimen, reduced compared to control), the “spleen viral load vs control by day 7 pi” value was “not statistically different”. For the same compound, the “viremia by day 8 pi” value in the data set on DENV2 D2Y98P (same regimen, virus still measurable in all surviving controls, P = 0.0045) is “cleared in all treated animals”. Also, the “% of starting concentration remaining” value in data set [5] is 98.2%; in [6], 93.5%. Moreover, in data set [7], the “drug remaining at first time point” value was “no drug remaining”. Besides, the safety findings result in data set [8] and in data set [9] was “no safety concerns” in each case. Moreover, the half-life in “in vitro” was below 3 min. Besides, the “unusual or adverse clinical signs after dosing” value in data set [3] (monkeys, oral AT-752 300 mg/kg or 60 mg/kg, observed before and after dosing and at blood collections) is on record as “no such signs noted”.
What is called IC50 is the concentration that inhibits the measured activity by half. `C[C@@]1(F)[C@H](O)[C@@H](COP(=O)(O)OP(=O)(O)OP(=O)(O)O)O[C@H]1n1cnc2c(=O)[nH]c(N)nc21` [AT-9010]: the “effect on RNA synthesis after incorporation” value in [1] is given as “immediate chain termination of RNA synthesis”. For the same compound, the “discrimination factor (preference for GTP > AT-9010)” value in data set [1] (all four NTPs present, band product intensities at +5 and +7 positions) is recorded as 12.6 ± 4.3. Besides, the “AT-9010 concentration in PBMCs” value (mice, 500 mg/kg AT-281 then 250 mg/kg 4 h later, 4 h after the second dose) was found to be 0.297 pmol/10^6 cells; the “AT-9010 concentration in PBMCs” value in data set [14] was 0.439 ± 0.218 pmol/10^6 cells; the “AT-9010 concentration in PBMCs” value in data set [15] is listed as 0.092 pmol/10^6 cells; the “AT-9010 concentration in PBMCs” value in data set [16] was 0.070 ± 0.046 pmol/10^6 cells. Moreover, the half-inhibitory concentration (IC50) in data set [10], in data set [11] and in data set [12] was above 100 µM throughout. Further, the “effect on mitochondrial integrity / inhibition of POLRMT” value in [13] is on record as “not likely to affect mitochondrial integrity or inhibit human mitochondrial DNA-directed RNA polymerase”.
For the compound `CC(C)C(=O)OC[C@@]1(N=[N+]=[N-])O[C@@H](n2ccc(N)nc2=O)[C@H](OC(=O)C(C)C)[C@@H]1OC(=O)C(C)C` [balapiravir], in the data set on DENV, the “viremia in patients infected with DENV” value is “failed to reduce viremia”. The “antiviral response, cytokine profile and time to fever clearance vs placebo” value with DENV (tested clinically) was “no differences between compound and placebo treatment were observed”.
For orientation: CC50 means the concentration that lowers cell viability or growth by half. With `COc1cc2nc(N3CCN(C(=O)C4COc5ccccc5O4)CC3)nc(N)c2cc1OC` (stereo not drawn) [doxazosin, reference compound], the half-maximal cytotoxic concentration (CC50) at 3 days in [17] was found to be 7 µM.

(Values after article PMC8522752 (Antimicrobial Agents and Chemotherapy, 2021).)
